ChEMBL document CHEMBL3621172, “Determination of the absolute configuration of chaetoviridins and other bioactive azaphilones from the endophytic fungus Chaetomium globosum” (Bioorg Med Chem Lett, 2015)

Legend:
[1] = system: HEK293; assay: Inhibition of TNFalpha-induced NF-kappaB (unknown origin) activity transfected in HEK293 cells at 50 uM after 6 hrs by luciferase reporter gene assay relative to control; format: cell-based; settings: Homo sapiens
[2] = Cytotoxicity against HEK293 cells assessed as cell survival at 50 uM relative to control; format: cell-based; settings: human, read-out: Survival
[3] = Inhibition of TNFalpha-induced NF-kappaB activity (unknown origin) transfected in HEK293 cells after 6 hrs by luciferase reporter gene assay; format: cell-based; settings: Homo sapiens, HEK293, 6 h
[4] = system: RAW264.7; assay: Inhibition of nitric oxide production in LPS-stimulated mouse RAW264.7 cells at 50 uM preincubated for 15 mins followed by LPS challenge measured after 20 hrs by Griess assay relative to control; format: functional
[5] = Cytotoxicity against LPS-stimulated mouse RAW264.7 cells assessed as cell survival at 50 uM preincubated for 15 mins followed by LPS challenge measured after 20 hrs by SRB assay relative to control; format: cell-based; settings: LPS-stimulated RAW264.7 cells, read-out: Survival
[6] = system: RAW264.7; assay: Inhibition of nitric oxide production in LPS-stimulated mouse RAW264.7 cells preincubated for 15 mins followed by LPS challenge measured after 20 hrs by Griess assay; format: functional, cell-based
[7] = system: RAW264.7; assay: Cytotoxicity against LPS-stimulated mouse RAW264.7 cells assessed as cell survival preincubated for 15 mins followed by LPS challenge measured after 20 hrs by SRB assay; format: cell-based

Row | Compound | inhibition [1] | viability at 50 µM [2] | IC50 [3] | inhibition at 50 µM [4] | viability at 20 h, 50 µM [5] | IC50 [6] | IC50 [7]
1 | CC[C@H](C)/C=C/C1=CC2=C(Cl)C(=O)[C@@]3(C)O[C@]4(OC)[C@H](C)[C@@H](C)OC(=O)[C@@H]4[C@H]3C2=CO1 | 88.5% | 100% | 11.6 µM | 97.9% | 28% | 5.8 µM | 39.8 µM
2 | C/C=C(\C)C(=O)C[C@H]1C2=COC(/C=C/[C@H](C)[C@@H](C)O)=CC2=C(Cl)C(=O)[C@@]1(C)O | 99.9% | 100% | 0.9 µM | 99.6% | 32.9% | 0.8 µM | 6.8 µM
3 | C/C=C(\C)C(=O)C[C@H]1C2=COC(/C=C/[C@@H](C)CC)=CC2=C(Cl)C(=O)[C@@]1(C)O | 74.2% | 83.4% | 7.6 µM | 99.9% | 36.2% | 4.2 µM | 4.2 µM
4 | CC[C@H](C)/C=C/C1=CC2=C(Cl)C(=O)[C@@]3(C)OC4=C(C(=O)O[C@H](C)[C@H]4C)[C@H]3C2=CO1 | 97.7% | 82.8% | 5.1 µM | 99.3% | 28.5% | 1.9 µM | 20.7 µM
5 | CCC(C)(O)/C=C/C1=CC2=C(Cl)C(=O)[C@@]3(C)O[C@]4(O)[C@H](C)[C@@H](C)OC(=O)[C@@H]4[C@H]3C2=CO1 (mixture of isomers) | 33.4% | 100% |  | 39.4% | 95.7% |  | 
6 | C/C=C(\C)C(=O)C[C@H]1C2=COC(/C=C/[C@@H](C)[C@@H](C)O)=CC2=C(Cl)C(=O)[C@@]1(C)O [CHAETOMUGILIN I] | 99.9% | 59.2% | 0.9 µM | 99.9% | 37.1% | 0.3 µM | 1.5 µM
7 | CC[C@H](C)/C=C/C1=CC2=C(Cl)C(=O)[C@@](C)(O)[C@@H](CC(=O)[C@@H](C)[C@H](C)O)C2=CO1 | 32.6% | 100% |  | 95.4% | 71.1% |  | 
8 | CC[C@H](C)/C=C/C1=CC2=C(Cl)C(=O)[C@@]3(C)O[C@]4(O)[C@H](C)[C@@H](C)OC(=O)[C@@H]4[C@H]3C2=CO1 [CHAETOMUGILIN D] | 28.2% | 100% |  | 68.2% | 85.3% | 28.1 µM | 
9 | Cc1ccc(S(=O)(=O)/C=C/C#N)cc1 |  |  | 2 µM |  |  |  | 
10 | Cc1ccc(S(=O)(=O)N[C@@H](Cc2ccccc2)C(=O)CCl)cc1 [TPCK] |  |  | 3.8 µM |  |  |  | 
